Measurements taken from patent US7041658B2, “Method of inhibiting hair growth” (Kao Corporation, priority 1998, dated 2006).

Experiments:
elastase = assay: Elastase activity-inhibiting test in cultured human fibroblast; type: biochemical; conditions: human fibroblast enzyme solution, substrate N-succinyl-(Ala)3-p-nitroanilide, 37° C. 1 hour
Excerpt: (§1) Normal human fibroblasts commercially available from Dainippon Pharmaceutical Co., Ltd. were subcultured in a DMEM containing a 10% fetal bovine serum and used in this test. The cells separated from a Petri dish with a rubber policeman were suspended in physiological saline, collected by means of a low-speed centrifugal separator and washed 3 times with physiological saline. The thus-treated cells were suspended in a 0.1% Triton X-100/0.2 M Tris-HCl buffer (pH: 8.0) and ultrasonically disrupted to use as an enzyme solution.
125 mM N-Succinyl-(Ala)3-p-nitroanilide was used as a substrate for the measurement of enzyme activity, and each subject (1 μl; its concentration is shown in Table 1) was added to the enzyme solution (100 μl) to conduct a reaction at 37° C. for 1 hour. The reaction was stopped by adding acetic acid (5 μl). The amount of nitroaniline formed was determined by measuring an absorbance at 405 nm by means of a spectrophotometer.

neutral endopeptidase = target: T1, neutral endopeptidase (Homo sapiens, UniProt P08473); assay: Neutral endopeptidase activity-inhibiting test in cultured human fibroblast; type: biochemical; conditions: human fibroblast enzyme solution, substrate glutaryl-Ala-Ala-Phe-4-methoxy-2-naphthylamine, read-out: Percent inhibition of neutral endopeptidase activity (%)
T1 construct: suspended in a 0.1% Triton X-100/0.2 M Tris-HCl buffer (pH: 8.0) and ultrasonically disrupted to use as an enzyme solution; host or cells: normal human fibroblasts, Triton X-100 lysate
T1 sequence (P08473 whole entry): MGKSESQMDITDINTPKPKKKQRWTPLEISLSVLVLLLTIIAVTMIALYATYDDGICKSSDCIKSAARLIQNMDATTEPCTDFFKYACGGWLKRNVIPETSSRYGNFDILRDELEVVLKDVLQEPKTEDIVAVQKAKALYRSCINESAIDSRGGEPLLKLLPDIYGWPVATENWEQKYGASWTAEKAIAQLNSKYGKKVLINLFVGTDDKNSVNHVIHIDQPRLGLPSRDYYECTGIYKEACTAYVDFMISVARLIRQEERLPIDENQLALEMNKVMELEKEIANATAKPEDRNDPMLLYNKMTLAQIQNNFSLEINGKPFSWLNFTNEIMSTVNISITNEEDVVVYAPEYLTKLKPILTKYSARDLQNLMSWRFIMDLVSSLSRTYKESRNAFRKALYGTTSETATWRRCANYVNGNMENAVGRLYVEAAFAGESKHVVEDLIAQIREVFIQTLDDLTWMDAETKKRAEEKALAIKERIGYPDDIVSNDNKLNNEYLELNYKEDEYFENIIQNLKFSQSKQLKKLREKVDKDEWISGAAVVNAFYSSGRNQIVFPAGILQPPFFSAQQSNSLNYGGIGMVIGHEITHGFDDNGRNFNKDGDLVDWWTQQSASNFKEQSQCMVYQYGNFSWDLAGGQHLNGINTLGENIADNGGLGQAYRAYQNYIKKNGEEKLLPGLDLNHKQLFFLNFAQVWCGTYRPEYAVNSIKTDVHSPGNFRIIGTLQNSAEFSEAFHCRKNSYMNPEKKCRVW
Excerpt: as §1, with “suspended in phosphate-buffered physiological saline,” for “suspended in physiological saline,”, “times with phosphate-buffered physiological saline.” for “times with physiological saline.”
The enzyme solution (2 μl), a solution (1 μl) of each subject compound and 20 mM glutaryl-Ala-Ala-Phe-4-methoxy-2-naphthylamine as a substrate for the measurement of enzyme activity were added to 100 μl of an MES buffer solution (100 mM, pH: 6.5), to which sodium chloride (300 mM) had been added, to conduct a reaction at 37° C. for 1 hour. The reaction was stopped by adding phosphoramidone so as to give a final concentration of 0.4 μM. Aminopeptidase M was added to the reaction mixture so as to give a final concentration of 20 mU, thereby conducting a reaction at 37° C. for 15 minutes. The amount of 4-methoxy-2-naphthylamine formed was determined by measuring a fluorescence intensity at an excitation wavelength of 340 nm and a fluorescence wavelength of 425 nm by means of a fluorescence spectrophotometer, thereby finding percent inhibition of neutral endopeptidase activity by the subject compound.

[1] = test system: regeneration of mouse back hair; assay: Test of inhibiting regeneration of mouse back hair; type: in vivo; conditions: applied twice a day 100 μl/time to shaved back, C3H mice, vs solvent control
Method: Back hair of a group of 5 C3H mice aged 6 weeks was shaved over 2×4 cm^2 by means of an electric hair clipper and an electric shaver so as not to damage their skins. Each subject was applied to the shaved sites twice a day in an amount of 100 μl/time over 4 weeks. Only the solvent was applied to a control group. After 3 weeks, a photograph of each shaved site was taken at a fixed magnification for observing the state of regenerated hair to compare a regenerated hair area ratio (regenerated hair area/shaved area) of the test group with that of the control group.

| Percent inhibition of elastase activity (%) (elastase; 0.1 mM) | Percent inhibition of elastase activity (%) (elastase; 1 mM) | Structure (SMILES) | inhibition at 10 µM (neutral endopeptidase) [%] | Percent inhibition of hair growth after 3 weeks from shaving (%) ([1]; 1 mM in 80% ethanol) | Percent inhibition of hair growth after 3 weeks from shaving (%) ([1]; 10 mM in 80% ethanol) |
| --- | --- | --- | --- | --- | --- |
| 85.6 |  | CC(C)CC(NP(=O)(O)OC1OC(C)C(O)C(O)C1O)C(=O)NC(Cc1c[nH]c2ccccc12)C(=O)O (stereo not shown) [Compound 1] | 99 | 58.7 |  |
| 82.1 |  | CC(C)CC(NP(=O)(O)CCc1ccccc1)C(=O)NC(Cc1c[nH]c2ccccc12)C(=O)O (stereo not shown) [Compound 2] | 98.8 | 59.1 |  |
| 90.2 |  | CC(C)CC(NC(=O)C(CC(C)C)NP(=O)(O)CCc1ccccc1)C(=O)O (stereo not shown) [Compound 3] |  | 64.8 |  |
|  | 68.4 | CC(C)CC(NP(=O)(O)CCc1ccccc1)C(=O)NCC(=O)O (stereo not shown) [Compound 4] |  |  | 60.5 |

| Structure (SMILES) | Percent inhibition of elastase activity (%) (elastase; 0.1 mM) | Percent inhibition of elastase activity (%) (elastase; 1 mM) | inhibition at 10 µM (neutral endopeptidase) [%] | Percent inhibition of hair growth after 3 weeks from shaving (%) ([1]; 1 mM in 80% ethanol) | Percent inhibition of hair growth after 3 weeks from shaving (%) ([1]; 10 mM in 80% ethanol) |
| --- | --- | --- | --- | --- | --- |
| O=C(O)CCNC(=O)C(CS)Cc1ccccc1 (stereo not shown) [Compound 7] | 85.4 |  | 97.1 | 59.7 |  |
| O=C(O)CNC(=O)C(CS)Cc1ccccc1 (stereo not shown) [Compound 8] | 89.6 |  | 96.3 | 71.6 |  |
